Test results reported in publication PMC11915801, “Evolutionary trajectory of bacterial resistance to antibiotics and antimicrobial peptides in Escherichia coli” (mSystems, 2025).
Read-outs that look alike come from different tables or passages of the source.

Columns and labels:
[1] = system: antibiotic- and AMP-evolved strains of MG1655; conditions: 1.5% H2O2, 37°C, 1 h in the dark, CFU counting
Experimental: Bacterial cells were proportionally mixed with 3% hydrogen peroxide solution and incubated at 37°C for 1 h in the dark. The reaction was terminated by adding a catalase solution with a final concentration of 1,000 U/mL. After diluting the mixture to an appropriate gradient, the drops were carried out on LB agar plates, and then the agar plates were placed in a 37°C incubator overnight for colony counting.

MG1655 dnaA-i = test: MIC, CRISPRi dnaA-repressed MG1655; format: cell-based; conditions: Escherichia coli, broth microdilution, CRISPRi repression of dnaA, anhydrotetracycline 0.5 µg/mL, read-out: MIC values of MG1655 with gene silencing, dnaA-i
Source text: (§1) The broth microdilution method was used to measure the MIC values of antibiotics and peptides according to the Clinical and Laboratory Standards Institute guidelines. The MIC value is defined as the lowest drug concentration without visible bacteria.
(§2) The engineered CRISPR/CRISPR-associated protein 9 (Cas9) system was used to repress the dnaA, deoB, icd, and thyA genes. Briefly, spacer 1 (5-[…]-3), spacer 2 (5-[…]-3), spacer 3 (5-[…]-3), and spacer 4 (5-[…]-3) were synthesized, and then, the construction of the targeting plasmid psgRNA was performed in a total volume of 25 µL. Subsequently, 1.5 µL of each newly constructed psgRNA and dCas9 was simultaneously electroporated into the competent cells of MG1655. MG1655 containing unmodified psgRNA and dCas9 was used as a control. Anhydrotetracycline at a final concentration of 0.5 µg/mL was used to induce gene repression. RT-qPCR was used to verify the expression of the genes.

MG1655 icd-i = test: MIC, CRISPRi icd-repressed MG1655; format: cell-based; conditions: Escherichia coli, broth microdilution, CRISPRi repression of icd, read-out: MIC values of MG1655 with gene silencing, icd-i
Source text: as §1, §2

AZI120 (evolved MG1655) = test: microbe, parasite or virus in culture; format: cell-based, Escherichia coli; conditions: broth microdilution, azithromycin-evolved strain; for MIC: Escherichia coli, MG1655
Source text: (§3) To ensure the stable resistance evolution and inheritance of MG1655 under different drugs, we randomly selected three monoclonals from the evolved strains. The final antibiotic-evolved strains were designated as AMP120, AZI120, CHL80, CIP120, DOX120, KAN80, NIT70, and TMP30, while the final AMP-evolved strains were named COL120, Ind120, Omi120, Pex120, PGLA120, Pleu120, R8120, SAAP120, LI120, and SLAP120.
as §1

KAN80 (evolved MG1655) = test: microbe, parasite or virus in culture; format: cell-based, Escherichia coli; conditions: broth microdilution, kanamycin-evolved strain; for MIC: Escherichia coli, MG1655
Source text: as §3, §1

TMP30 (evolved MG1655) = test: microbe, parasite or virus in culture; format: cell-based, Escherichia coli; conditions: for MIC: Escherichia coli, MG1655
Source text: as §3, §1

CIP120 (evolved MG1655) = test: microbe, parasite or virus in culture; format: cell-based, Escherichia coli; conditions: broth microdilution, ciprofloxacin-evolved strain; for MIC: Escherichia coli
Source text: as §3, §1

CHL80 (evolved MG1655) = test: microbe, parasite or virus in culture; format: cell-based, Escherichia coli; conditions: broth microdilution, chloramphenicol-evolved strain; for MIC: Escherichia coli, MG1655
Source text: as §3, §1

DOX120 (evolved MG1655) = test: microbe, parasite or virus in culture; format: cell-based, Escherichia coli; conditions: broth microdilution, doxycycline-evolved strain; for MIC: Escherichia coli, MG1655
Source text: as §3, §1

COL120 (evolved MG1655) = test: microbe, parasite or virus in culture; format: cell-based, Escherichia coli; conditions: broth microdilution, colistin-evolved strain; for MIC: Escherichia coli, MG1655
Source text: as §3, §1

NIT70 (evolved MG1655) = test: microbe, parasite or virus in culture; format: cell-based, Escherichia coli; conditions: broth microdilution, nitrofurantoin-evolved strain; for MIC: Escherichia coli, MG1655
Source text: as §3, §1

AMP120 (evolved MG1655) = test: microbe, parasite or virus in culture; format: cell-based, Escherichia coli; conditions: broth microdilution, ampicillin-evolved strain; for MIC: Escherichia coli, MG1655
Source text: as §3, §1

MG1655 thyA-i = test: MIC, CRISPRi thyA-repressed MG1655; format: cell-based, Escherichia coli; conditions: for MIC: Escherichia coli, MG1655, broth microdilution, CRISPRi repression of thyA, read-out: MIC values of MG1655 with gene silencing, thyA-i
Source text: as §1, §2

MG1655 deoB-i = test: MIC, CRISPRi deoB-repressed MG1655; format: cell-based; conditions: Escherichia coli, broth microdilution, CRISPRi repression of deoB, read-out: MIC values of MG1655 with gene silencing, deoB-i
Source text: as §1, §2

[2] = system: trimethoprim-resistant strains (TMP30); test: Disk diffusion experiment, trimethoprim-resistant strains; format: cell-based, Escherichia coli; conditions: drug 2,048 µg/mL, LB agar, 37°C 24 h
Experimental: Fifty microliters of bacterial cultures was spread evenly onto LB agar. A prepared circular sterile filter paper was pasted on the center of the petri dish, and the corresponding drugs with a concentration of 2,048 µg/mL were dropped on the center of the circular filter paper. The petri dishes were placed at 37°C for 24 h, and the diameters of the sterile growth circles were measured.

MG1655 WT = test: microbe, parasite or virus in culture; format: cell-based; conditions: Escherichia coli, MG1655, read-out: MIC values of MG1655 with gene silencing, WT
Source text: as §1, §2

[3] = system: chloramphenicol-resistant bacteria (CHL80); conditions: 15-min exposure, tenfold the MIC of MG1655, 1 × 10^6 CFU log-phase, CFU counting
Experimental: (§4) Bacteria were cultured at 37°C and 200 rpm to the logarithmic phase (1 × 10^6 CFU). The corresponding drugs, with a final concentration of tenfold the MIC of MG1655, were added. At 15, 30, 60, 90, and 120 min, 50 µL of the mixture was serially diluted 10-fold and dropped on an LB agar plate for CFU counting.

original MG1655 = conditions: tenfold the MIC of MG1655, 15-120 min, CFU counting
Experimental: as §4

E. coli K-12 MG1655 = test: microbe, parasite or virus in culture; format: cell-based, Escherichia coli; conditions: for MIC: Escherichia coli
Experimental: as §1
Eight antibiotics and ten AMPs at the sub-inhibitory concentration were prepared. A 300-µL system, including 260 µL of MH broth, 30 µL of prepared drug, and 10 µL of bacterial culture, was used for resistance passages. After 12 h of incubation at 37℃ and 200 rpm, 10 µL of the above bacterial culture was added into the new sterile drug-containing broth. MIC values of bacterial culture were determined. The drug concentration was adjusted according to the MIC value change until the end of the 120 passages.

[4] = system: mice infected with MG1655; conditions: 5.0 × 10^8 CFU i.p.; trimethoprim 60 mg/kg i.p. 1 h after infection; organs at 48 h; n = 6
Experimental: Female BALB/c mice aged 6 to 8 weeks were randomly divided into four groups with six replicates for each group. Of bacterial suspension, 5.0 × 10^8 CFU was intraperitoneally injected to mice for 1 h, followed by a second intraperitoneal injection of trimethoprim (60 mg/kg) or pexiganan (10 mg/kg) or a combination of trimethoprim and pexiganan (30 + 5 mg/kg). The PBS injection group was used as a control. After 48 h, the liver, spleen, and kidneys of the mice were aseptically removed for CFU measurement.

[5] = broth microdilution, trimethoprim-evolved strain
[6] = MG1655, 12 h, read-out: MIC of MG1655 under the pressure of the same drug, generation 10
[7] = MG1655, read-out: MIC of MG1655 under the pressure of the same drug, generation primary
[8] = MG1655, as E2, generation 20, read-out: MIC of MG1655 under the pressure of the same drug, generation 20
[9] = MG1655, as E2, generation 30, read-out: MIC of MG1655 under the pressure of the same drug, generation 30

OO [H2O2, hydrogen peroxide]
lower than 1%: survival rate of all strains after H2O2 treatment [1]

O=C1CN(/N=C/c2ccc([N+](=O)[O-])o2)C(=O)N1 [NIT, Nitrofurantoin]
exceeding fourfold: collateral sensitivity of TMP30 (fold change of MIC vs wild-type MG1655) (TMP30 (evolved MG1655); MIC of TMP30 compared with MG1655)
16 µg/mL: MIC (MG1655 dnaA-i) | MIC (MG1655 icd-i) | MIC (AZI120 (evolved MG1655)) | MIC (CIP120 (evolved MG1655)) | MIC (DOX120 (evolved MG1655)) | MIC (AMP120 (evolved MG1655)) | MIC (MG1655 deoB-i) | MIC (MG1655 WT) | MIC (E. coli K-12 MG1655; [6]) | MIC (E. coli K-12 MG1655; [7]) | MIC (E. coli K-12 MG1655; [8])
512 µg/mL: MIC (NIT70 (evolved MG1655)) | MIC (E. coli K-12 MG1655; MG1655, as E2, generation 70, read-out: MIC of MG1655 under the pressure of the same drug, generation 70)
decreased by less than one-log: CFU reduction of original MG1655 (original MG1655)
64 µg/mL: MIC (E. coli K-12 MG1655; [9]) | MIC (E. coli K-12 MG1655; MG1655, as E2, generation 40, read-out: MIC of MG1655 under the pressure of the same drug, generation 40)
significant inhibitory effect: inhibition halo on trimethoprim-resistant strains (in words) [2]
4 µg/mL: MIC (TMP30 (evolved MG1655); [5]) | MIC (CHL80 (evolved MG1655))
128 µg/mL: MIC (E. coli K-12 MG1655; MG1655, as E2, generation 50, read-out: MIC of MG1655 under the pressure of the same drug, generation 50)
8 µg/mL: MIC (KAN80 (evolved MG1655)) | MIC (COL120 (evolved MG1655)) | MIC (MG1655 thyA-i)
256 µg/mL: MIC (E. coli K-12 MG1655; MG1655, as E2, generation 60, read-out: MIC of MG1655 under the pressure of the same drug, generation 60)
completely eradicated: killing of chloramphenicol-resistant bacteria (CFU) [3]

COc1cc(Cc2cnc(N)nc2N)cc(OC)c1OC [TMP, Trimethoprim]
512 µg/mL: MIC (TMP30 (evolved MG1655); [5]) | MIC (E. coli K-12 MG1655; [9])
decreased significantly: bacterial loads in the liver, spleen, and kidneys of mice infected with MG1655 [4]
256 µg/mL: MIC (MG1655 thyA-i)
128 µg/mL: MIC (MG1655 icd-i) | MIC (KAN80 (evolved MG1655)) | MIC (CIP120 (evolved MG1655)) | MIC (CHL80 (evolved MG1655)) | MIC (DOX120 (evolved MG1655)) | MIC (COL120 (evolved MG1655)) | MIC (NIT70 (evolved MG1655)) | MIC (AMP120 (evolved MG1655)) | MIC (MG1655 deoB-i) | MIC (E. coli K-12 MG1655; [6]) | MIC (E. coli K-12 MG1655; [8])
64 µg/mL: MIC (MG1655 dnaA-i) | MIC (AZI120 (evolved MG1655)) | MIC (MG1655 WT) | MIC (E. coli K-12 MG1655; [7])
four-fold increase in MIC: increase in MIC in thyA-i strains vs original MG1655 (MG1655 thyA-i; CRISPRi thyA repression)

Fatty acyl-Dab-Thr-Dab-Dab-Dab-D-Leu-Leu-Dab-Dab-Thr [COL, Colistin, cationic lipopeptide antibiotic (polymyxin), source microorganism]
0.25 µg/mL: MIC values of evolved MG1655, strain CHL80 (CHL80 (evolved MG1655)) | MIC values of evolved MG1655, strain DOX120 (DOX120 (evolved MG1655)) | MIC of MG1655 under the pressure of the same drug, generation 30 (E. coli K-12 MG1655; as E2, generation 30) | MIC of MG1655 under the pressure of the same drug, generation 40 (E. coli K-12 MG1655; as E2, generation 40)
0.5 µg/mL: MIC values of evolved MG1655, strain AZI120 (AZI120 (evolved MG1655)) | MIC values of evolved MG1655, strain KAN80 (KAN80 (evolved MG1655)) | MIC values of evolved MG1655, strain TMP30 (TMP30 (evolved MG1655); [5]) | MIC values of evolved MG1655, strain CIP120 (CIP120 (evolved MG1655)) | MIC values of evolved MG1655, strain COL120 (COL120 (evolved MG1655)) | MIC values of evolved MG1655, strain NIT70 (NIT70 (evolved MG1655)) | MIC values of evolved MG1655, strain AMP120 (AMP120 (evolved MG1655)) | MIC of MG1655 under the pressure of the same drug, generation 50 (E. coli K-12 MG1655; as E2, generation 50) | MIC of MG1655 under the pressure of the same drug, generation 60 (E. coli K-12 MG1655; as E2, generation 60) | MIC of MG1655 under the pressure of the same drug, generation 70 (E. coli K-12 MG1655; as E2, generation 70) | MIC of MG1655 under the pressure of the same drug, generation 80 (E. coli K-12 MG1655; as E2, generation 80) | MIC of MG1655 under the pressure of the same drug, generation 90 (E. coli K-12 MG1655; as E2, generation 90) | MIC of MG1655 under the pressure of the same drug, generation 100 (E. coli K-12 MG1655; as E2, generation 100) | MIC of MG1655 under the pressure of the same drug, generation 110 (E. coli K-12 MG1655; as E2, generation 110) | MIC of MG1655 under the pressure of the same drug, generation 120 (E. coli K-12 MG1655; as E2, generation 120)
0.125 µg/mL: MIC of MG1655 under the pressure of the same drug, generation 20 (E. coli K-12 MG1655; as E2, generation 20) | MIC of MG1655 under the pressure of the same drug, generation primary (E. coli K-12 MG1655; broth microdilution (CLSI), primary MG1655 before passage) | MIC of MG1655 under the pressure of the same drug, generation 10 (E. coli K-12 MG1655; broth microdilution, line passaged in MH broth with sub-inhibitory drug, 12 h per passage, 37℃, generation 10)
marginal increase in resistance: evolution of resistance in MG1655 (in words) (E. coli K-12 MG1655; MG1655, sub-inhibitory drug in MH broth over 60 days)
